According to patent US10570121B2, “Substituted dihydroisoquinolinone compounds” (priority 2014, dated 2020):

Tests used:
WT EZH2 = WT EZH2 (Homo sapiens (Human), UniProt Q15910); assay: WT EZH2 nucleosome assay (10X SAM, high SAM conditions); assay type: biochemical; conditions: 15 uM SAM, Ki app from competitive inhibition fit, read-out: WT EZH2 Nucleosome assay (10X SAM) Ki
Description: (§1) The genes for EZH2, EED, SUZ12, and RBBP4 proteins were cloned into pBacPAK9 vectors (Clontech). RBBP4 was FLAG tagged on the N-terminal end. The baculovirus expressions of these proteins were used to co-infect SF9 insect cells. Insect cell pellets were lysed in a buffer containing 25 mM Tris pH8.0, 300 mM NaCl, 0.5 mM TCEP, complete EDTA-free protease inhibitor (Roche), 0.1% NP-40. The supernatant from the lysate was incubated with FLAG® M2 antibody resin (Sigma). The resin was washed on the chromatography column and eluted with 0.2 mg/ml FLAG peptide. The elute was incubated with omnicleave nucleases (Epicentre Technologies) at 4° C. overnight, then concentrated and loaded onto a Superdex 200 (GE Healthcare) column. The Superdex 200 column was eluted with 25 mM Tris pH8.0, 150 mM NaCl, 0.5 mM TCEP. Fractions containing the PRC2 complex were pooled.
(§2) A. Compound preparation • 1.
(§3) B. Reagent preparation • 1. […] Dilute TCA to 20% in DI water
(§4) C. Enzyme reaction • 1. […] Some compounds were tested under high SAM conditions.
(§5) D. Data analysis • 1. IC50 values were determined by fitting the data to a 4-parameter IC50 equation using proprietary curve fitting software. • 2. For compounds tested under high SAM conditions, Ki^app values were obtained by fitting the dose response curve to a model for competitive inhibition using proprietary curve fitting software. Preparation of HeLa Oligonucleosomes: Reagents • Cell Pellet: 15 L HeLa S3 (Accelgen)+6 L HeLa S3 (in house) • Mnase (Worthington Biochemicals) Equipment • SW-28 Rotor • Dounce Homogenizer/B Pestle Buffers • Lysis: 20 mM Hepes pH 7.5, 0.25M Sucrose, 3 mM MgCl2, 0.5% Nonidet P-40, 0.5 mM TCEP, 1 Roche Protease Tablet • B: 20 mM Hepes pH7.5, 3 mM MgCl2, 0.5 mM EDTA, 0.5 mM TCEP, 1 Roche Protease Tablet • MSB: 20 mM Hepes pH7.5, 0.4 M NaCl, 1 mM EDTA, 5% v/v Glycerol, 0.5 mM TCEP, 0.2 mM PMSF • LSB: 20 mM Hepes pH7.5, 0.1M NaCl, 1 mM EDTA, 0.5 mM TCEP, 0.2 mM PMSF • NG: 20 mM Hepes pH7.5, 1 mM EDTA, 0.4 m NaCl, 0.2 mM PMSF, 0.5 mM TCEP • Storage: 20 mM Hepes pH7.5, 1 mM EDTA, 10% Glycerol, 0.2 mM PMSF, 0.5 mM TCEP Protocol

EZH2 Mutant Y641N = EZH2 Mutant Y641N (Homo sapiens (Human), UniProt Q15910, Y641N); assay: EZH2 Mutant Y641N nucleosome assay; assay type: biochemical; conditions: PRC2 4-protein complex 6 nM, 1.5 μM SAM, HeLa oligonucleosomes; read-out: EZH2 Mutant Y641N Nucleosome assay IC50
Sequence of EZH2 Mutant Y641N (Q15910 whole entry Y641N, looked up): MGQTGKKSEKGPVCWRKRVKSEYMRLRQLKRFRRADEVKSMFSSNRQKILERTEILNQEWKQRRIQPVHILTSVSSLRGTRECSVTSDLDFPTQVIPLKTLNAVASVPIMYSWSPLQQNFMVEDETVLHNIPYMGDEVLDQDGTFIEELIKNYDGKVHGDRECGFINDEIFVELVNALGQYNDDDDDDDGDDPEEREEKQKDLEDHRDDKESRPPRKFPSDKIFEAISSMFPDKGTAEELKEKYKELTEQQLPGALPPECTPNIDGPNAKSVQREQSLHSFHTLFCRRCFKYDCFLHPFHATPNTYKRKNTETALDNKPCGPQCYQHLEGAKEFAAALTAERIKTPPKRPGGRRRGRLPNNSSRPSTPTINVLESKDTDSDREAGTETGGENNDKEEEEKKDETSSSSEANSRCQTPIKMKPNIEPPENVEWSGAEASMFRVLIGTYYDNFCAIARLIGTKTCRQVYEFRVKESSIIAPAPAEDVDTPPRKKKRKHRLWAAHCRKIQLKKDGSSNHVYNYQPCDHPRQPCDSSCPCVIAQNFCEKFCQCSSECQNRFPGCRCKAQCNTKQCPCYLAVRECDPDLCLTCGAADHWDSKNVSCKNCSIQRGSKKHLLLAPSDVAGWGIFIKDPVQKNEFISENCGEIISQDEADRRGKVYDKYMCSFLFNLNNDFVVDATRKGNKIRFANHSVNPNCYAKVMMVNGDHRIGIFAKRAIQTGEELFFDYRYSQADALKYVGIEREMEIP
Sequence of EZH2 Mutant Y641N (O75530 whole entry partner, looked up): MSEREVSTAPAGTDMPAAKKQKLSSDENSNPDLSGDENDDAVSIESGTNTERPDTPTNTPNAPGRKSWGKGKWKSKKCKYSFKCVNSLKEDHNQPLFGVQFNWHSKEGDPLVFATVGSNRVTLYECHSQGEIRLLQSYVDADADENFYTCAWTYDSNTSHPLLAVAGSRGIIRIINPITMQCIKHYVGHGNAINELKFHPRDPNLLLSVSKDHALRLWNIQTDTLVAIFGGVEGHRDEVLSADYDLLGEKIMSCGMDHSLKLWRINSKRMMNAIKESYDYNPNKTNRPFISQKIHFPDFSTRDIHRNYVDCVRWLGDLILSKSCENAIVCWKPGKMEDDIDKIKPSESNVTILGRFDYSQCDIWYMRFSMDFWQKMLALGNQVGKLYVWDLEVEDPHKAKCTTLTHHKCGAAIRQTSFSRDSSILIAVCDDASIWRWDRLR
Sequence of EZH2 Mutant Y641N (Q15022 whole entry partner, looked up): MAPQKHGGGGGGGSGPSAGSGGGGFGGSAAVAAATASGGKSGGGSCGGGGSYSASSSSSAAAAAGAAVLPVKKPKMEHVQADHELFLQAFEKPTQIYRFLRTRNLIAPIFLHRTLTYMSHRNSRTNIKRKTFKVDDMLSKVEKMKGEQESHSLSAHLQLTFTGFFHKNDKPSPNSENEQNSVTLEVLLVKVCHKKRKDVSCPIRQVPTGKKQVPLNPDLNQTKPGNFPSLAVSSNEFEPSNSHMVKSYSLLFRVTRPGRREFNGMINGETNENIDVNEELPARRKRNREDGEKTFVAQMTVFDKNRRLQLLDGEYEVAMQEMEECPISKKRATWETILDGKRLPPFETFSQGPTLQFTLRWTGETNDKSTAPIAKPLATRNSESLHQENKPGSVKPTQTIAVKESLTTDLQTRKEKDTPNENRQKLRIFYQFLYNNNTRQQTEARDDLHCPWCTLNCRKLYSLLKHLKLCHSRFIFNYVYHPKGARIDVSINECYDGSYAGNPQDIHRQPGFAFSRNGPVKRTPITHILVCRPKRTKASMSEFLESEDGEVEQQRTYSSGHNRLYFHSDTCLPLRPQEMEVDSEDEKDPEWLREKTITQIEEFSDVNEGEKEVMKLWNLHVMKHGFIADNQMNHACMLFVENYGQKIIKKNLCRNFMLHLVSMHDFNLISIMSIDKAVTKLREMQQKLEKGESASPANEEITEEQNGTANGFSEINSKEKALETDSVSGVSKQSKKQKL
Sequence of EZH2 Mutant Y641N (Q09028 whole entry partner, looked up): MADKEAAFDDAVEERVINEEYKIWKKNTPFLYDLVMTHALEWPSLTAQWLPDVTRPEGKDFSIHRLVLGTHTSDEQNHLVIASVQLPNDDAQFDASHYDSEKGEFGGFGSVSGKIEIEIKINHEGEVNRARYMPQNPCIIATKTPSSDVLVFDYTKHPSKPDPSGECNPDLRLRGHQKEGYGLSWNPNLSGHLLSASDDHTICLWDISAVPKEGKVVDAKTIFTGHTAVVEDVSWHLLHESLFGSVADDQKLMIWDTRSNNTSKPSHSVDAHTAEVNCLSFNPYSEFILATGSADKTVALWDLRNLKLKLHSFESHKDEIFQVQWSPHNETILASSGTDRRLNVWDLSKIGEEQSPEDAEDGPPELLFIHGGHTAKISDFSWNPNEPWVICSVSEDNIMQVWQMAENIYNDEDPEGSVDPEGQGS
Description: as §1, §2, §3, §4, §5

Sequence of WT EZH2 (Q15910 whole entry, looked up): as the sequence (Q15910 whole entry Y641N, looked up) above, with N641Y counted along it
Sequence of WT EZH2 (O75530 whole entry partner, looked up): as the sequence (O75530 whole entry partner, looked up) above
Sequence of WT EZH2 (Q15022 whole entry partner, looked up): as the sequence (Q15022 whole entry partner, looked up) above
Sequence of WT EZH2 (Q09028 whole entry partner, looked up): as the sequence (Q09028 whole entry partner, looked up) above

COc1cc(C)[nH]c(=O)c1CN1CCc2c(C)cc([C@@H](OC)[C@@H]3CCOC3)c(Cl)c2C1=O (single isomer, unassigned) [Example 85, 8-chloro-2-[(4-methoxy-6-methyl-2-oxo-1,2-dihydropyridin-3-yl)methyl]-7-{(S*)-methoxy[(3R*)-tetrahydrofuran-3-yl]methyl}-5-methyl-3,4-dihydroisoquinolin-1(2H)-one]
Ki (WT EZH2): 52 nM | IC50 (EZH2 Mutant Y641N): 238 nM

COc1cc(C)[nH]c(=O)c1CN1CCc2c(Cl)cc(C(C)C3CN(C)C3)c(Cl)c2C1=O (single isomer, unassigned) [Example 87, 5,8-dichloro-2-[(4-methoxy-6-methyl-2-oxo-1,2-dihydropyridin-3-yl)methyl]-7-[1-(1-methylazetidin-3-yl)ethyl]-3,4-dihydroisoquinolin-1 (2H)-one]
Ki (WT EZH2): 0.01 nM | IC50 (EZH2 Mutant Y641N): 2 nM

COc1cc(C)[nH]c(=O)c1CN1CCc2c(Cl)cc(C(C)C3CN(C)C3)c(Cl)c2C1=O (single isomer, unassigned) [Example 88, 5,8-dichloro-2-[(4-methoxy-6-methyl-2-oxo-1,2-dihydropyridin-3-yl)methyl]-7-[1-(1-methylazetidin-3-yl)ethyl]-3,4-dihydroisoquinolin-1 (2H)-one]
Ki (WT EZH2): 28 nM | IC50 (EZH2 Mutant Y641N): 122 nM

Cc1cc(OC(F)F)c(CN2CCc3c(Cl)cc(C(CO)C4CCOC4)c(Cl)c3C2=O)c(=O)[nH]1 (single isomer, unassigned) [Example 92]
Ki (WT EZH2): 1 nM | IC50 (EZH2 Mutant Y641N): 9 nM

Cc1cc(OC(F)F)c(CN2CCc3c(Cl)cc(C(CO)C4CCOC4)c(Cl)c3C2=O)c(=O)[nH]1 (single isomer, unassigned) [Example 93]
Ki (WT EZH2): 159 nM | IC50 (EZH2 Mutant Y641N): 1330 nM

Cc1cc(OC(F)F)c(CN2CCc3c(Cl)cc(C(CO)C4CCOC4)c(Cl)c3C2=O)c(=O)[nH]1 (single isomer, unassigned) [Example 94]
Ki (WT EZH2): 323 nM | IC50 (EZH2 Mutant Y641N): 4870 nM

Cc1cc(OC(F)F)c(CN2CCc3c(Cl)cc(C(CO)C4CCOC4)c(Cl)c3C2=O)c(=O)[nH]1 (single isomer, unassigned) [Example 95]
Ki (WT EZH2): 1 nM | IC50 (EZH2 Mutant Y641N): 12 nM

Cc1cc(C)c(CN2CCc3ccc(C(CO)C4CCOC4)c(Cl)c3C2=O)c(=O)[nH]1 (single isomer, unassigned) [Example 96]
Ki (WT EZH2): 204 nM | IC50 (EZH2 Mutant Y641N): 2990 nM

Cc1cc(C)c(CN2CCc3ccc(C(CO)C4CCOC4)c(Cl)c3C2=O)c(=O)[nH]1 (single isomer, unassigned) [Example 97]
Ki (WT EZH2): 3 nM | IC50 (EZH2 Mutant Y641N): 27 nM

Cc1cc(C)c(CN2CCc3ccc(C(CO)C4CCOC4)c(Cl)c3C2=O)c(=O)[nH]1 (single isomer, unassigned) [Example 98]
Ki (WT EZH2): 1220 nM | IC50 (EZH2 Mutant Y641N): 8720 nM

Cc1cc(C)c(CN2CCc3ccc(C(CO)C4CCOC4)c(Cl)c3C2=O)c(=O)[nH]1 (single isomer, unassigned) [Example 99]
Ki (WT EZH2): 3 nM | IC50 (EZH2 Mutant Y641N): 17 nM

Cc1cc(C)c(CN2CCc3c(C)cc(C(CO)C4CCOCC4)c(Cl)c3C2=O)c(=O)[nH]1 (single isomer, unassigned) [Example 100]
Ki (WT EZH2): 309 nM | IC50 (EZH2 Mutant Y641N): 3730 nM

Cc1cc(C)c(CN2CCc3c(C)cc(C(CO)C4CCOCC4)c(Cl)c3C2=O)c(=O)[nH]1 (single isomer, unassigned) [Example 101]
Ki (WT EZH2): 0.3 nM | IC50 (EZH2 Mutant Y641N): 7 nM

Cc1cc(C)c(CN2CCc3c(Cl)cc(C(CO)O[C@@H]4CCOC4)c(Cl)c3C2=O)c(=O)[nH]1 (single isomer, unassigned) [Example 103]
Ki (WT EZH2): 52 nM | IC50 (EZH2 Mutant Y641N): 320 nM

Cc1cc(C)c(CN2CCc3c(Cl)cc(C(CO)O[C@@H]4CCOC4)c(Cl)c3C2=O)c(=O)[nH]1 (single isomer, unassigned) [Example 104]
Ki (WT EZH2): 673 nM | IC50 (EZH2 Mutant Y641N): 7770 nM

CCC(OC)c1cc(Cl)c2c(c1Cl)C(=O)N(Cc1c(OC)cc(C)[nH]c1=O)CC2 (single isomer, unassigned) [Example 107]
Ki (WT EZH2): 1.9 nM | IC50 (EZH2 Mutant Y641N): 18 nM

CCC(OC)c1cc(Cl)c2c(c1Cl)C(=O)N(Cc1c(OC)cc(C)[nH]c1=O)CC2 (single isomer, unassigned) [Example 108]
Ki (WT EZH2): 1.7 nM | IC50 (EZH2 Mutant Y641N): 16 nM
